From US8367349B2, “Methods for identifying modulators of LRRK2” (Medical Research Council, priority 2010, dated 2013)
Each block holds one compound with its values, some of them ahead of it.

Key:
endogenous LRRK2 [1] = biological target: T1, endogenous LRRK2 (Mus musculus, UniProt Q5S006); assay: Ser910/Ser935 phosphorylation and 14-3-3 binding of endogenous LRRK2 in Swiss 3T3 cells; type: cell-based; conditions: 90 minutes
T1 construct: endogenous in cells; host or cells: Swiss 3T3 cells
Procedure: (§1) Cell transfections were performed by the polyethylenimine method. Where inhibitors are utilized, they were dissolved in DMSO and used at the indicated concentrations with an equivalent volume of DMSO used as a control. The final concentration of DMSO in the culture medium was never more than 0.1% (v/v). Inhibitors were added to the culture medium for the indicated times before lysis. Per 15 cm dish, HEK 293 cells were lysed with 1.0 ml and 3T3 cells were lysed with 0.6 ml of lysis buffer supplemented with the indicated detergent and clarified by centrifugation at 16,000×g at 4° C. for 10 minutes. After induction and inhibitor treatment, T-REx-GFP expressing cells were lysed at room temperature with SDS lysis buffer after washing with PBS. SDS lysates were boiled and sonicated to reduce viscosity. When not used immediately, all lysate supernatants were snap frozen in liquid nitrogen and stored at −80° C. until use. Protein concentrations were determined using the Bradford method with BSA as the standard.
Immunological procedures. Cell lysates (10-30 μg) were resolved by electrophoresis on SDS polyacrylamide gels or Novex 4-12% gradient gels, and electroblotted to nitrocellulose membranes. Membranes were blocked with 5% skimmed milk (w/v) in 50 mM Tris/HCl, pH 7.5, 0.15 M NaCl and 0.1% (v/v) Tween (TBST Buffer). […]

LRRK2[G2019S] = biological target: T2, LRRK2[G2019S] (Homo sapiens, UniProt Q5S007, G2019S); assay: Ser910/Ser935 phosphorylation and 14-3-3 binding of Flag-LRRK2[G2019S] in HEK-293 cells; type: cell-based
T2 construct: expressed in transfected cells; host or cells: HEK-293 cells, transient transfection
Procedure: (§2) FIG. 5. […] Cells were lysed in lysis buffer supplemented with 0.5% NP40 and […] and subjected to anti-FLAG immunoprecipitation. Immunoprecipitates were resolved on 4-12% Novex SDS-polyacrylamide gels and subjected to immunoblot with FLAG (total LRRK2), anti-pS910, anti-pS935 as well as a 14-3-3 overlay assay.
as §1
(§3) Immunological procedures. […]

LRRK2[A2016T+G2019S] = biological target: T3, LRRK2[A2016T+G2019S] (Homo sapiens, UniProt Q5S007, A2016T/G2019S); assay: Ser910/Ser935 phosphorylation and 14-3-3 binding of drug resistant LRRK2[A2016T+G2019S] in HEK-293 cells; type: cell-based; conditions: HEK-293 over-expressing LRRK2[A2016T+G2019S], 90 minutes
T3 construct: expressed in transfected cells; host or cells: HEK-293 cells, transient transfection
Procedure: as §2, §1, §3

wild type FLAG-LRRK2 = biological target: T4, wild type FLAG-LRRK2 (Homo sapiens, UniProt Q5S007); assay: Ser910/Ser935 dephosphorylation of wild type FLAG-LRRK2 in 293 cells; type: cell-based
T4 construct: overexpressed full length human FLAG-LRRK2 expressed in HEK-293 cells; expressed in transfected cells; host or cells: HEK-293 cells, transient transfection
Procedure: as §2, §1, §3

[2] = system: GFP-LRRK2 or GFP-LRRK2[G2019S]; assay: Cytoplasmic localisation of GFP-LRRK2 or GFP-LRRK2[G2019S] in T-REx cells (fluorescence microscopy); type: cell-based, human; conditions: drug sensitive GFP-LRRK2 or GFP-LRRK2[G2019S], 90 min before fixation
Procedure: (§4) FIG. 14. Disruption of 14-3-3 binding induces accumulation of LRRK2 within cytoplasmic aggregates. A.) Stable-inducible T-REx cells lines harboring the indicated forms of LRRK2 were induced for 24 hours with 0.1 μg/ml doxycycline to induce expression of GFP-LRRK2. The indicated cell lines were treated in the absence or presence of the indicated dose of H-1152 for 90 min prior to fixation. Representative fluorescent micrographs of GFP-LRRK2 localisation are shown. Cytoplasmic aggregates of GFP-LRRK2 are indicated with white arrowheads. B.) Fluorescent micrographs representative of cultures of the indicated forms GFP-LRRK2 are shown. Cytoplasmic aggregates of GFP-LRRK2 are indicated with white arrowheads. Localisation analyses were performed in duplicate, and similar results observed in two independent experiments.
(§5) Fluorescence Microscopy. HEK-293 Flp-in T-REx were purchased from Invitrogen and stable cells harbouring GFP tagged wild type and mutant forms of LRRK2 were generated using standard protocols. Cells were plated in 4-well glass bottom, CC2 coated chamber slides (Nunc). One day after plating, cells were induced with 0.1 μg/ml doxycycline and 24 hr later, cells were fixed in 4% paraformaldehyde buffered in phosphate buffered saline (purchased from USB, # 19943). […]

[3] = system: LRRK2[A2016T] or LRRK2[A2016T+G2019S]; assay: Cytoplasmic localisation of drug resistant GFP-LRRK2[A2016T] or [A2016T+G2019S] in T-REx cells; type: cell-based, human
Procedure: as §4, §5

endogenous LRRK2 [4] = biological target: T1, endogenous LRRK2; assay: Kinase activity of endogenous LRRK2 immunoprecipitated from inhibitor-treated Swiss 3T3 cells after wash-out; type: biochemical; conditions: 30 μM H1152 or 10 μM sunitinib for 2 h, inhibitor washed off, 20 μM Nictide
Procedure: Immunoprecipitates were washed with lysis buffer containing 0.5 M NaCl to remove inhibitor and were then incubated in kinase buffer containing 20 μM Nictide with the presence or absence of magnesium-ATP for 30 min. Following incubation, immunoprecipitates were centrifuged at 8000 rpm for 0.5 min and the supernatant spotted on to P81 paper for measurement of LRRK2 kinase activity. Sample buffer was added to the pelleted beads and LRRK2 S910 and S935 phosphorylation was quantified following immunoblot analysis. A membrane was also subjected to autoradiography to assess LRRK2 autophosphorylation.
LRRK2 Immunoprecipitation Kinase assays. Peptide Kinase Assays were set up in a total volume of 50 μl with immunoprecipitated LRRK2 as a source of kinase, in 50 mM Tris pH 7.5, 0.1 mM EGTA, 10 mM MgCl2 and 0.1 mM [γ-^32P]ATP (˜500-1000 cpm/pmol) in the presence of 30 μM Nictide peptide substrate. Reactions were terminated by applying 30 μl of the reaction mixture on to P81 phosphocellulose paper and immersion in 50 mM phosphoric acid. After extensive washing, reaction products were quantitated by Cerenkov counting. One half of the remaining reaction was subjected to immunoblot analysis using the Odyssey LICOR system and specific activity is represented as cpm/LICOR independent density values.

LRRK2 = LRRK2 (Homo sapiens, UniProt Q5S007); conditions: wild type LRRK2, in vitro; read-out: IC50 for inhibition of LRRK2; cited from earlier work
LRRK2[Ala2016Thr] = LRRK2[Ala2016Thr] (Homo sapiens, UniProt Q5S007, A2016T); conditions: relative to normally sensitive LRRK2; cited from earlier work
GFP-LRRK2 = biological target: T5, GFP-LRRK2 (Homo sapiens, UniProt Q5S007); assay: Kinase inhibitor panel: Ser910/Ser935 phosphorylation in HEK293 cells stably expressing GFP-LRRK2; type: cell-based; conditions: HEK293 GFP-LRRK2, 90 minutes, inhibitors at the higher limits of concentrations routinely employed
T5 construct: immunoprecipitates of stably expressed full length GFP-LRRK2; expressed in transfected cells
Procedure: as §1, with “FIG. 16. HEK-293 stably expressing GFP-LRRK2 were treated with DMSO, or the following inhibitors dissolved in DMSO, at the indicated concentration for 90 minutes. […] Total LRRK2 was assessed by GFP immunoblot. The immunoblots shown are representative of 2 independent experiments. Cell” for “Cell”, “SDS lysates were boiled and sonicated to reduce viscosity. When not used immediately, all lysate supernatants were snap frozen in liquid nitrogen and stored at −80° C. until use.” left out, “standard. […] Immune complexes were washed twice with lysis buffer supplemented with 0.3 M NaCl and twice with Buffer A. Precipitates were either used as a source of kinase or immediately analyzed by immunoblot. […] DIG 14-3-3 was detected with HRP labelled anti-DIG Fab fragments (Roche).” for “standard.”

T1 sequence (Q5S006 whole entry): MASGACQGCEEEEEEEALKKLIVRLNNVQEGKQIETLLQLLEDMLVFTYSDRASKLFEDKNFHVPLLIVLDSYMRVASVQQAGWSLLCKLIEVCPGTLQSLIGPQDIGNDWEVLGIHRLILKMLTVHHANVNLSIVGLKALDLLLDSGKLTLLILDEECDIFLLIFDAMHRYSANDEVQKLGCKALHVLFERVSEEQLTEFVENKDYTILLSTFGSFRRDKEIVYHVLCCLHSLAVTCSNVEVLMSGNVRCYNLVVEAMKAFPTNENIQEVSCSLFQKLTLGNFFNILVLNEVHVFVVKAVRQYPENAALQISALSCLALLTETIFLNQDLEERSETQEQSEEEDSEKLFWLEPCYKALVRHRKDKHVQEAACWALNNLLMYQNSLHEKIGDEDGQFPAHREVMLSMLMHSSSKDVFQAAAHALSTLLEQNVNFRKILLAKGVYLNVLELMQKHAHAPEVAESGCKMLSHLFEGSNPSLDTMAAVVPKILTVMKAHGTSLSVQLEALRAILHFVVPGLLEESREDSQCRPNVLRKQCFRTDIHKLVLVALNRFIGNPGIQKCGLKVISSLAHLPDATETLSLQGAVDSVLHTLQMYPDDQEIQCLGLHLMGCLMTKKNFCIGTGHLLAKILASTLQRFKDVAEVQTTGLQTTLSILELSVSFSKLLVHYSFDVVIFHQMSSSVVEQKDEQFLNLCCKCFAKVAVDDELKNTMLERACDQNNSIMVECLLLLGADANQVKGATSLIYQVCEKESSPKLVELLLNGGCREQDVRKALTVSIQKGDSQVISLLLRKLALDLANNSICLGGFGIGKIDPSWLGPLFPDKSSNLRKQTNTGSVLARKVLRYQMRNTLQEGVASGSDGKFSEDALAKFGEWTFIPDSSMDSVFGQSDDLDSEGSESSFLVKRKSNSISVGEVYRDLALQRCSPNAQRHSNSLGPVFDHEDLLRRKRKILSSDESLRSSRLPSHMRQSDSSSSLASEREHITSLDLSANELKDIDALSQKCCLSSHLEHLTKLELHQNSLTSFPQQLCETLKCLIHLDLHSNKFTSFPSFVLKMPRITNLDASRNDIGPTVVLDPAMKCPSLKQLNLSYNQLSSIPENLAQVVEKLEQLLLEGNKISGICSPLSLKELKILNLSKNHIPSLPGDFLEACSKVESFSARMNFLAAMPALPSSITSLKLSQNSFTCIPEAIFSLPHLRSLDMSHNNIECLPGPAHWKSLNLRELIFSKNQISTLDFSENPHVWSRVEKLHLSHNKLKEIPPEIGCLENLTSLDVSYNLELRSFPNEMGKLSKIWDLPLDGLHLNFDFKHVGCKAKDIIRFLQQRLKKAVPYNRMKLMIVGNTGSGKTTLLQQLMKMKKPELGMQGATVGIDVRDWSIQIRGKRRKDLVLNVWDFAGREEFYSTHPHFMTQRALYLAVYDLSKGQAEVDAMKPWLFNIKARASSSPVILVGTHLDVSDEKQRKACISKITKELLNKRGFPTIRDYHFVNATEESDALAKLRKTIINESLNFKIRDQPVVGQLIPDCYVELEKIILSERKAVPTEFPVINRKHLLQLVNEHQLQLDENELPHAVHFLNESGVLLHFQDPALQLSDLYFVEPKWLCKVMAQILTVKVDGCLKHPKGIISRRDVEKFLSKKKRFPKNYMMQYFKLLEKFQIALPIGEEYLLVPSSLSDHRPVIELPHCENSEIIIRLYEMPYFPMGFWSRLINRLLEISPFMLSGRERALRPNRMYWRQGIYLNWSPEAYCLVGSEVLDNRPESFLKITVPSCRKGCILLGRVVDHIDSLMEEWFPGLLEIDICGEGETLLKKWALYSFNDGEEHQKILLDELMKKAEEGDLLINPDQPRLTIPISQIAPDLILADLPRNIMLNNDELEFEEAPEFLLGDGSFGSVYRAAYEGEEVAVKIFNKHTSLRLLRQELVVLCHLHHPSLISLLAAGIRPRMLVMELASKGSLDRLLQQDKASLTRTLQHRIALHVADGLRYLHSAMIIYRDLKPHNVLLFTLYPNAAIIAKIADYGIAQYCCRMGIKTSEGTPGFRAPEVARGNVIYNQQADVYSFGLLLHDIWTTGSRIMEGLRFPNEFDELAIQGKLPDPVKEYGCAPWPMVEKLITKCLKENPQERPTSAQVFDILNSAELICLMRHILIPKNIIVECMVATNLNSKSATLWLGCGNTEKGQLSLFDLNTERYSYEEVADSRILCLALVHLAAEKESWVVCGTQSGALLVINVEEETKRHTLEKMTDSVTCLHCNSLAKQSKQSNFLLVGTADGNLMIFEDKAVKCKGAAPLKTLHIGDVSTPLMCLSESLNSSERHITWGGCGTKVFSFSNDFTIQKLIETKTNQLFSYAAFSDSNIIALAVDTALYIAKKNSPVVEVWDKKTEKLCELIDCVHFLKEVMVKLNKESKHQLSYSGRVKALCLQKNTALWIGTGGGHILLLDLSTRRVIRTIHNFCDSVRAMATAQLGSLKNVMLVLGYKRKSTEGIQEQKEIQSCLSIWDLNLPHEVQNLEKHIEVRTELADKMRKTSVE
T2 sequence (Q5S007 whole entry G2019S): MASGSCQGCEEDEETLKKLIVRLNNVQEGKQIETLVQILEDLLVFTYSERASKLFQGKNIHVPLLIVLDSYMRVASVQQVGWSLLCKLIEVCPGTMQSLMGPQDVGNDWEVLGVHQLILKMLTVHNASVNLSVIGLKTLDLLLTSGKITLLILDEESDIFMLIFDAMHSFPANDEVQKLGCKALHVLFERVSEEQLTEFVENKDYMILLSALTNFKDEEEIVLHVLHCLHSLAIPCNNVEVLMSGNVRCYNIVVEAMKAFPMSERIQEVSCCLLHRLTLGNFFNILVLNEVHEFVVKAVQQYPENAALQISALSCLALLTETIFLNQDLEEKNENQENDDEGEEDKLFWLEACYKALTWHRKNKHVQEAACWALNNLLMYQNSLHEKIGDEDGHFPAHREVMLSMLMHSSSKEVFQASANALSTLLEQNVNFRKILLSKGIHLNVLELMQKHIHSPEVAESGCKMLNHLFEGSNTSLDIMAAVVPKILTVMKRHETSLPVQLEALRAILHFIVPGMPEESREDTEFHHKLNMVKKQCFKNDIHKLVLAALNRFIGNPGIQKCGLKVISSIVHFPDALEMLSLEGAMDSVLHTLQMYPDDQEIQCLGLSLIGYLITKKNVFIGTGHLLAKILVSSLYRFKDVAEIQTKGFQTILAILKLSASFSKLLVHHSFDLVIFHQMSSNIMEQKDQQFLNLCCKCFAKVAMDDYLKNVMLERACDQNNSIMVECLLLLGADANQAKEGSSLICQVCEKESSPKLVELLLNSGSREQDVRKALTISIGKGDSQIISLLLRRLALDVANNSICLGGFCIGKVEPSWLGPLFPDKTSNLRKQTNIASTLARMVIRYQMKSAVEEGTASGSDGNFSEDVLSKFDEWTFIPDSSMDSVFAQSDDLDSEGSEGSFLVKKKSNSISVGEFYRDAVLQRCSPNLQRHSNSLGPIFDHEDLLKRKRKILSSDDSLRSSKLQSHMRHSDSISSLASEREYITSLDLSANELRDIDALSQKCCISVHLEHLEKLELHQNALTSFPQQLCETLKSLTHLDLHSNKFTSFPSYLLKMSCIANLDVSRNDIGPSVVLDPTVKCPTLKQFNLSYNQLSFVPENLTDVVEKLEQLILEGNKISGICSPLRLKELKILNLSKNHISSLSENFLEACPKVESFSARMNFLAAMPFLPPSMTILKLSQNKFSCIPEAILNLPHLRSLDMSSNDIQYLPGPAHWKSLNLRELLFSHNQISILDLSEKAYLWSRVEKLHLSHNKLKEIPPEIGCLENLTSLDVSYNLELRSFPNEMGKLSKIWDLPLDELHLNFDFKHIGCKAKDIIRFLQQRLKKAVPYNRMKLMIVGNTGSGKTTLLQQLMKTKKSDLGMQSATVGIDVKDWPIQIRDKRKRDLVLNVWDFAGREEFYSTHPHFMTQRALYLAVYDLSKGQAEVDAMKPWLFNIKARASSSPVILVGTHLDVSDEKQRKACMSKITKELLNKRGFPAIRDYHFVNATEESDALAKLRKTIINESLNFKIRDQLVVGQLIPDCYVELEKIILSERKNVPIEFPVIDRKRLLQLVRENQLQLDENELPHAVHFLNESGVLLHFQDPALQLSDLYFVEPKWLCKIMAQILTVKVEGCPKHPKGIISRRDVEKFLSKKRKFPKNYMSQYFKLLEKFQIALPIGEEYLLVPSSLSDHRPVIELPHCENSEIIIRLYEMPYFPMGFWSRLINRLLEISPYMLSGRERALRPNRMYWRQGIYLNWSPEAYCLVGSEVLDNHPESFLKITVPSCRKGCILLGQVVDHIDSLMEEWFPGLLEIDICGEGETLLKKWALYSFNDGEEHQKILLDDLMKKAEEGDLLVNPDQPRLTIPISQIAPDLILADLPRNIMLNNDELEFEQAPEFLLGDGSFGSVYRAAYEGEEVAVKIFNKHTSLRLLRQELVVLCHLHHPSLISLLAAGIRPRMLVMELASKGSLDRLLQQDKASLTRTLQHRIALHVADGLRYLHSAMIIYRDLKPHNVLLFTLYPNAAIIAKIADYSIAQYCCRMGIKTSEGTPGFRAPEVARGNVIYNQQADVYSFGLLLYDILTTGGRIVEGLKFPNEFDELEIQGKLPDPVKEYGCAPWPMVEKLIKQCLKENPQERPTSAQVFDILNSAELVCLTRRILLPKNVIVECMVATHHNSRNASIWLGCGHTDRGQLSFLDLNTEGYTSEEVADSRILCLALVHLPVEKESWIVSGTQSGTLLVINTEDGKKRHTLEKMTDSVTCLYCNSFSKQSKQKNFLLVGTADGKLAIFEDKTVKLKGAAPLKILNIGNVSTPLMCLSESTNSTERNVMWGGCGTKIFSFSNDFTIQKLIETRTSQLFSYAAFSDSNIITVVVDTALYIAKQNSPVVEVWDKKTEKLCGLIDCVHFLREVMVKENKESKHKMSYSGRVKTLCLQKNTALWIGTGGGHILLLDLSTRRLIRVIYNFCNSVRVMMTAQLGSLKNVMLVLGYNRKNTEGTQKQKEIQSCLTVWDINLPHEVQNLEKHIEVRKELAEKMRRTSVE
T4 sequence (Q5S007 whole entry): as the sequence (Q5S007 whole entry G2019S) above, with S2019G counted along it
Sequence of LRRK2 (Q5S007 whole entry): as the sequence (Q5S007 whole entry G2019S) above, with S2019G counted along it
T5 sequence (Q5S007 whole entry): as the sequence (Q5S007 whole entry G2019S) above, with S2019G counted along it

SMILES: Cc1cncc2cccc(S(=O)(=O)N3CCCNC[C@@H]3C)c12 [H-1152]
concentration inducing almost complete dephosphorylation of Ser910 and Ser935 and loss of 14-3-3 binding (endogenous LRRK2 [1]): 10 to 30 µM | dephosphorylation of endogenous LRRK2 at Ser910 and Ser935 with concomitant reduction in 14-3-3 binding (endogenous LRRK2 [1]; increasing amounts of inhibitor): dose dependent dephosphorylation | potency in inducing dephosphorylation and impairing 14-3-3 binding: LRRK2[G2019S] compared with wild type LRRK2 (LRRK2[G2019S]; HEK-293 cells, Flag-LRRK2 forms): more potent | dephosphorylation of LRRK2[G2019S] at Ser910 and Ser935 and disruption of 14-3-3 binding (LRRK2[G2019S]; HEK-293 over-expressing LRRK2[G2019S], 90 minutes): dose-dependent dephosphorylation | inhibition of Ser910 or Ser935 phosphorylation or 14-3-3 binding of drug resistant mutant (LRRK2[A2016T+G2019S]): neither H-1152 nor sunitinib significantly inhibited | potency at inducing dephosphorylation of wild type FLAG-LRRK2 compared with endogenous LRRK2 in Swiss 3T3 cells (wild type FLAG-LRRK2): similar | accumulation of LRRK2 within cytoplasmic pools [2]: marked accumulation of LRRK2 within cytoplasmic pools | accumulation of LRRK2 within cytoplasmic pools [3]: no cytoplasmic pool accumulation | endogenous LRRK2 kinase activity after treatment of cells (endogenous LRRK2 [4]): did not affect | IC50 (LRRK2): 0.15 µM | fold less sensitive: drug resistant LRRK2[Ala2016Thr] mutant (LRRK2[Ala2016Thr]): 32 fold

dephosphorylation of Ser910/Ser935 (GFP-LRRK2): did not induce dephosphorylation
SMILES: N#CC(c1ccnc(NCCc2cccnc2)n1)c1nc2ccccc2s1 (stereo not drawn) [AS601245]
